Reference: PMC8072931, “Thermodynamic Evaluation of the Interactions between Anticancer Pt(II) Complexes and Model Proteins” (Molecules, 2021)

How the values were obtained:
[1] = target: T1, hen egg-white lysozyme (HEWL) (Gallus gallus, UniProt P00698); experiment: UV-Vis absorbance titration (binding constant K), […]; DSC; ESI-MS; settings: read-out: K (M^-1) ^1
T1 construct: gene LYZ

[2] = target: T1, hen egg-white lysozyme (HEWL); experiment: UV-Vis absorbance titration (binding constant K), […]; DSC (no adduct seen in ESI-MS); settings: read-out: K (M^-1) ^1

T1 sequence (P00698 19-147): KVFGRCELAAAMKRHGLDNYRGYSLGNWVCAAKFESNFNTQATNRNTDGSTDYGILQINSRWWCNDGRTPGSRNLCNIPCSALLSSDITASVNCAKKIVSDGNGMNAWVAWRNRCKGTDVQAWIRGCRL

## O=S(=O)(O)C(F)(F)F.[Cl][Pt-2]12[n+]3ccccc3-c3cc(-c4ccccc4)cc([n+]31)-c1cccc[n+]12 [compound 1, [PtCl(4′-phenyl-2,2′:6′,2″-terpyridine)](CF3SO3)]
[1]
  Kd: 58.8 µM

## O=S(=O)(O)C(F)(F)F.[I][Pt-2]12[n+]3ccccc3-c3cc(-c4ccccc4)cc([n+]31)-c1cccc[n+]12 [compound 2, [PtI(4′-phenyl-2,2′:6′,2″-terpyridine)](CF3SO3)]
[2]
  Kd: 83.3 µM
